Source: US10239832B2, “N-(1-hydroxy-3-(pyrrolidinyl)propan-2-yl)pyrrolidine-3-carboxamide derivatives as glucosylceramide synthase inhibitors” (BIOMARIN PHARMACEUTICAL INC., priority 2013, dated 2019)

Target: T1, GCS (Canis lupus familiaris, UniProt A0A8I3MXG6)
T1 construct: endogenous in cells; host or cells: MDCK (Madin-Darby canine kidney) cells, whole-cell lysate
T1 sequence (A0A8I3MXG6 1-394): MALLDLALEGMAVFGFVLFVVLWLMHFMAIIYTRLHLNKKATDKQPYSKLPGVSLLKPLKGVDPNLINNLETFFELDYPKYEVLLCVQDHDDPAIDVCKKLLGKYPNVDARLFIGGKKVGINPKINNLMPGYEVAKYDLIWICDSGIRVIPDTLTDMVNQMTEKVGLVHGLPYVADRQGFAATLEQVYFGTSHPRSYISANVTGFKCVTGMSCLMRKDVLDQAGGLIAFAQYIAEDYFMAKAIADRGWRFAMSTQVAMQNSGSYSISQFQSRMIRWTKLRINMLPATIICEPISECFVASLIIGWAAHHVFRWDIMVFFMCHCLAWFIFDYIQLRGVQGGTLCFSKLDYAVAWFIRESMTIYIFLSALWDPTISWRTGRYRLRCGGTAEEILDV
Assay: GCS enzymatic assay (MDCK cell lysate, NBD-ceramide to glucosylceramide, LC/MS)
Assay type: biochemical, canine
Settings: Table 2; class symbols A, B, C; the table does not say which of the assays; read-out: Data Range (IC50 values)
Procedure, shortened: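 IC50 or percent inhibition came from LC/MS/MS (ESI+, MRM) of NBD-ceramide and glucosylceramide, with tolbutamide as internal standard. The reaction used MDCK (canine) cell lysate as the enzyme source and was ended with acetonitrile. Mock wells received 0.1% DMSO.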

Row | IC50 [nM] | Compound
1 | 1 to 30 | O=C(N[C@H](CN1CCCC1)[C@H](O)c1ccc(OC2CC2)c(Cl)c1)[C@@H]1CCN(c2ccc(Cl)c(OC3CCCCC3)c2)C1 [Compound 136, (R)-1-(4-chloro-3-(cyclohexyloxy)phenyl)-N-((1R,2R)-1-(3-chloro-4-cyclopropoxyphenyl)-1-hydroxy-3-(pyrrolidin-1-yl)propan-2-yl)pyrrolidine-3-carboxamide]
2 | 30 to 100 | O=C(N[C@H](CN1CCCC1)[C@H](O)c1cc2c(c(C(F)(F)F)c1)OCCO2)[C@@H]1CCN(c2ccc(Cl)cc2)C1 [Compound 137, (R)-1-(4-chlorophenyl)-N-((1R,2R)-1-hydroxy-3-(pyrrolidin-1-yl)-1-(8-(trifluoromethyl)-2,3-dihydrobenzo[b][1,4]dioxin-6-yl)propan-2-yl)pyrrolidine-3-carboxamide]
3 | 30 to 100 | O=C(N[C@H](CN1CCCC1)[C@H](O)c1ccc(OC2CC2)c(Cl)c1)[C@@H]1CCN(c2ccc(Cl)c(-c3ccc(F)cc3)c2)C1 [Compound 138, (R)-1-(6-chloro-4′-fluoro-[1,1′-biphenyl]-3-yl)-N-((1R,2R)-1-(3-chloro-4-cyclopropoxyphenyl)-1-hydroxy-3-(pyrrolidin-1-yl)propan-2-yl)pyrrolidine-3-carboxamide]
4 | 30 to 100 | CC(C)(C)c1ccc(N2CC[C@@H](C(=O)N[C@H](CN3CCCC3)[C@H](O)c3ccc(OC4CC4)c(Cl)c3)C2)cc1 [Compound 139, (R)-1-(4-(tert-butyl)phenyl)-N-((1R,2R)-1-(3-chloro-4-cyclopropoxyphenyl)-1-hydroxy-3-(pyrrolidin-1-yl)propan-2-yl)pyrrolidine-3-carboxamide]
5 | 30 to 100 | O=C(N[C@H](CN1CCCC1)[C@H](O)c1ccc(OC2CCCC2)c(Cl)c1)[C@@H]1CCN(c2ccc(Cl)cc2)C1 [Compound 141, (R)-N-((1R,2R)-1-(3-chloro-4-(cyclopentyloxy)phenyl)-1-hydroxy-3-(pyrrolidin-1-yl)propan-2-yl)-1-(4-chlorophenyl)pyrrolidine-3-carboxamide]
6 | 30 to 100 | CC(C)(C)c1ccc(N2CC[C@@H](C(=O)N[C@H](CN3CCCC3)[C@H](O)c3cc(F)c4c(c3)OCCO4)C2)cc1 [Compound 142, (R)-1-(4-(tert-butyl)phenyl)-N-((1R,2R)-1-(8-fluoro-2,3-dihydrobenzo[b][1,4]dioxin-6-yl)-1-hydroxy-3-(pyrrolidin-1-yl)propan-2-yl)pyrrolidine-3-carboxamide]
7 | 1 to 30 | O=C(N[C@H](CN1CCCC1)[C@H](O)c1ccc2c(c1)OC=CO2)[C@@H]1CCN(c2ccc(Cl)cc2)C1 [Compound 143, (R)-N-((1R,2R)-1-(benzo[b][1,4]dioxin-6-yl)-1-hydroxy-3-(pyrrolidin-1-yl)propan-2-yl)-1-(4-chlorophenyl)pyrrolidine-3-carboxamide]
8 | 1 to 30 | O=C(N[C@H](CN1CCCC1)[C@H](O)c1cc(F)c2c(c1)OCCO2)[C@@H]1CCN(c2ccc(Cl)c(-c3ccc(F)cc3)n2)C1 [Compound 144, (R)-1-(5-chloro-6-(4-fluorophenyl)pyridin-2-yl)-N((1R,2R)-1-(8-fluoro-2,3-dihydrobenzo[b][1,4]dioxin-6-yl)-1-hydroxy-3-(pyrrolidin-1-yl)propan-2-yl)pyrrolidine-3-carboxamide]
9 | 1 to 30 | O=C(N[C@H](CN1CCCC1)[C@H](O)c1ccc(SC2CC2)c(Cl)c1)[C@@H]1CCN(c2ccc(Cl)cc2)C1 [Compound 145, (R)-N-((1R,2R)-1-(3-chloro-4-(cyclopropylthio)phenyl)-1-hydroxy-3-(pyrrolidin-1-yl)propan-2-yl)-1-(4-chlorophenyl)pyrrolidine-3-carboxamide]

Row | Compound | IC50 [nM]
10 | O=C(N[C@H](CN1CCCC1)[C@H](O)c1ccc(OC2CCC2)c(Cl)c1)[C@@H]1CCN(c2ccc(Cl)cc2)C1 [Compound 140, (R)-N-((1R,2R)-1-(3-chloro-4-cyclobutoxyphenyl)-1-hydroxy-3-(pyrrolidin-1-yl)propan-2-yl)-1-(4-chlorophenyl)pyrrolidine-3-carboxamide] | 1 to 30
